Experimental data as given in patent US5981748A, “Synthesis of optically pure compounds useful as GARFT inhibitors and their intermediates” (Agouron Pharmaceuticals, Inc., priority 1998, dated 1999).
pKi: −log10 of the molar value.

Target: catalytic domain of the human GARFT (Homo sapiens, UniProt P22102)
Test: biochemical
Description: Reactions mixtures were prepared containing the catalytic domain of the human GARFT, 0-250 nM test compound, 20 μM glycinamide ribonucleotide (GAR), 10 or 20 μM N^10 -formyl-5,8-dideazafolate (FDDF), 50 mM HEPES-KOH (pH 7.5), and 50 mM KCl. The reaction was initiated with the addition of enzyme to a final concentration of 11 nM, followed by monitoring of the increase in absorbance at 294 nm at 20° C. (ε294 =18.9 mM^-1 cm^-1).
The GARFT inhibition constant (Ki) was determined from the dependence of the steady-state catalytic rate on the inhibitor and substrate concentration. […] The Michaelis constant for FDDF, Km, was determined independently by the dependence of the catalytic rate on the FDDF concentration. Data for both the Km and Ki determinations were fitted by non-linear methods to the Michaelis equation or to the Michaelis equation for competitive inhibition, as appropriate.

Chain of catalytic domain of the human GARFT (P22102 810-1010 limits assumed): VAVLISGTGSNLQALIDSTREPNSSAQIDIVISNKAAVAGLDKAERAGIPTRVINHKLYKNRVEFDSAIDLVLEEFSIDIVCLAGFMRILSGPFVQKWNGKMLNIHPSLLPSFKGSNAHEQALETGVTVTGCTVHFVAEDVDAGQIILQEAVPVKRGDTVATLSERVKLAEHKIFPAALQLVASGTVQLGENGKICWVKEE

pKi: 8.52
SMILES: Nc1nc2c(c(=O)[nH]1)S[C@H](CCc1ccc(C(=O)N[C@@H](CCC(=O)O)C(=O)O)s1)CN2 [Compound 15, 2-(5-[2-(2-Amino-4-oxo-4,6,7,8-tetrahydro-3H-pyrimido[5,4-b][1,4]thiazin-6(R)-yl)-ethyl]-thiophene)-2-L-glutamic acid]
